Results taken from PubChem BioAssay (NCI).
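GI50: concentration for 50% inhibition of growth. TGI denotes the concentration required for complete inhibition of growth.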

How the values were obtained:
Assay in all cases: NCI tumour cell line growth inhibition, 384-well format
786-0 renal = test system: 786-0 renal
A498 renal = test system: A498 renal
A549 NSCLC = test system: A549 NSCLC
ACHN renal = test system: ACHN renal
BT-549 breast = test system: BT-549 breast
CAKI-1 renal = test system: CAKI-1 renal
CCRF-CEM leukemia = test system: CCRF-CEM leukemia
COLO 205 colon = test system: COLO 205 colon
DU-145 prostate = test system: DU-145 prostate
EKVX NSCLC = test system: EKVX NSCLC
HCC-2998 colon = test system: HCC-2998 colon
HCT-116 colon = test system: HCT-116 colon
HCT-15 colon = test system: HCT-15 colon
HL-60(TB) leukemia = test system: HL-60(TB) leukemia
HOP-62 NSCLC = test system: HOP-62 NSCLC
HOP-92 NSCLC = test system: HOP-92 NSCLC
HS 578T breast = test system: HS 578T breast
HT29 colon = test system: HT29 colon
IGROV1 ovarian = test system: IGROV1 ovarian
K-562 leukemia = test system: K-562 leukemia
KM12 colon = test system: KM12 colon
LOX IMVI melanoma = test system: LOX IMVI melanoma
M14 melanoma = test system: M14 melanoma
MALME-3M melanoma = test system: MALME-3M melanoma
MCF7 breast = test system: MCF7 breast
MDA-MB-231 breast = test system: MDA-MB-231 breast
MDA-MB-435 melanoma = test system: MDA-MB-435 melanoma
MDA-MB-468 breast = test system: MDA-MB-468 breast
MOLT-4 leukemia = test system: MOLT-4 leukemia
NCI-H226 lung = test system: NCI-H226 lung

In the case of NC(=O)Nc1cc(-c2cccc(F)c2)sc1C(=O)N[C@H]1CCCNC1, the GI50 ([…]-0 renal) was 179 nM, the TGI (786-0 renal) was 1050 nM and the GI50 (A498 renal) was 32.3 nM. For the same compound, the TGI (A498 renal) was 144 nM, the GI50 (A549 NSCLC) was 315 nM and the TGI (A549 NSCLC) was 1570 nM. The GI50 (ACHN renal) was 49.7 nM, the TGI (ACHN renal) was 295 nM and the GI50 (BT-549 breast) was 16.6 nM. It also gave a TGI (BT-549 breast) of 105 nM, a GI50 (CAKI-1 renal) of 294 nM and a TGI (CAKI-1 renal) of 1500 nM. The GI50 (CCRF-CEM leukemia) was 40.4 nM, the TGI (CCRF-CEM leukemia) was 192 nM and the GI50 (COLO 205 colon) was 261 nM. The TGI (COLO 205 colon) was 1080 nM, the GI50 (DU-145 prostate) was 290 nM and the TGI (DU-145 prostate) was 1340 nM. For the same compound, the GI50 (EKVX NSCLC) was 389 nM, the TGI (EKVX NSCLC) was 2150 nM and the GI50 (HCC-2998 colon) was 10.6 nM. The TGI (HCC-2998 colon) was 149 nM, the GI50 (HCT-116 colon) was 1000 nM and the TGI (HCT-116 colon) was 2670 nM. For the same compound, the GI50 (HCT-15 colon) was 1280 nM, the TGI (HCT-15 colon) was 2890 nM and the GI50 (HL-60(TB) leukemia) was 120 nM. For the same compound, the TGI (HL-60(TB) leukemia) was 245 nM, the GI50 (HOP-62 NSCLC) was 146 nM and the TGI (HOP-62 NSCLC) was 565 nM. For the same compound, the GI50 (HOP-92 NSCLC) was 38.1 nM, the TGI (HOP-92 NSCLC) was 407 nM and the GI50 (HS 578T breast) was 13.2 nM. It also gave a TGI (HS 578T breast) of 284 nM, a GI50 (HT29 colon) of 221 nM and a TGI (HT29 colon) of 700 nM. For the same compound, the GI50 (IGROV1 ovarian) was 79.6 nM, the TGI (IGROV1 ovarian) was 887 nM and the GI50 (K-562 leukemia) was 103 nM. It also gave a TGI (K-562 leukemia) of 237 nM, a GI50 (KM12 colon) of 22 nM and a TGI (KM12 colon) of 228 nM. The GI50 (LOX IMVI melanoma) was 359 nM, the TGI (LOX IMVI melanoma) was 1240 nM and the GI50 (M14 melanoma) was 45.1 nM. It also gave a TGI (M14 melanoma) of 224 nM, a GI50 (MALME-3M melanoma) of 185 nM and a TGI (MALME-3M melanoma) of 1740 nM. It also gave a GI50 (MCF7 breast) of 53.3 nM, a TGI (MCF7 breast) of 12200 nM and a GI50 (MDA-MB-231 breast) of 300 nM. It also gave a TGI (MDA-MB-231 breast) of 1570 nM, a GI50 (MDA-MB-435 melanoma) of 143 nM and a TGI (MDA-MB-435 melanoma) of 302 nM. For the same compound, the GI50 (MDA-MB-468 breast) was 202 nM, the TGI (MDA-MB-468 breast) was 698 nM and the GI50 (MOLT-4 leukemia) was 40.6 nM. For the same compound, the TGI (MOLT-4 leukemia) was 189 nM and the GI50 (NCI-H226 lung) was 508 nM.
